Measurements: ChEMBL document CHEMBL3217701, “Squaric acid: a valuable scaffold for developing antimalarials?” (Medchemcomm, 2012)

Experiments:
Papain = target: T1, Papain (Carica papaya, UniProt P00784); experiment: Inhibition of papaya papain using Z-Leu-Leu-Arg-AMC as substrate measured for 30 mins by fluorescence assay
T1 sequence (P00784 whole entry): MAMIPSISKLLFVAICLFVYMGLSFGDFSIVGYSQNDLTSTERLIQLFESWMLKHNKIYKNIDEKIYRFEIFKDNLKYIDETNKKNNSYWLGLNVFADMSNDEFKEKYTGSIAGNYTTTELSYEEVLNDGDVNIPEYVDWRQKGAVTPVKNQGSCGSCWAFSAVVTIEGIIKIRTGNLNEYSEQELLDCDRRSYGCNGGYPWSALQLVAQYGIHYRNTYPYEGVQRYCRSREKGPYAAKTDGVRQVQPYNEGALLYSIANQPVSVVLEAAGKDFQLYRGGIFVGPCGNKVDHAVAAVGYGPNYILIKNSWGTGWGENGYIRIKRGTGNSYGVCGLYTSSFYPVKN

[1] = Inhibition of Plasmodium falciparum falcipain-2 using Z-Leu-Arg-AMC as substrate after 10 mins by spectrofluorometric analysis
Plasmodium falciparum = experiment: Antiplasmodial activity against chloroquine-resistant ring stage of Plasmodium falciparum W2 infected in human RBC after 48 hrs by flow cytometric analysis; type: functional, organism-based; conditions: W2, 48 h
[2] = Cytotoxicity against mouse NIH/3T3 cells assessed as inhibition of cell viability after 48 hrs by MTT assay; type: cell-based; conditions: NIH3T3, 48 h
HEK-293T = experiment: Cytotoxicity against HEK293T cells assessed as inhibition of cell viability after 48 hrs by MTT assay; type: cell-based; conditions: Homo sapiens
[3] = Selectivity index, ratio of IC50 for HEK293T cells to IC50 for chloroquine-resistant ring stage of Plasmodium falciparum W2; type: toxicity, cell-based, HEK-293T; conditions: human; read-out: Ratio IC50

SMILES	IC50 (Papain)	IC50 [1]	IC50 (Plasmodium falciparum)	IC50 [2]	IC50 (HEK-293T)	selectivity ratio [3]
CCCCOc1c(Nc2ccc(C(C)(C)C)cc2)c(=O)c1=O	> 10 µM	> 50 µM	2.65 µM	17.5 µM	12.3 µM	4.7
O=c1c(Nc2ccc(N3CCCCC3)cc2)c(Nc2ccc(N3CCCCC3)cc2)c1=O	2.8 µM	> 50 µM	4.16 µM	> 50 µM	> 50 µM	> 12
COc1c(N(CCc2ccccc2)NC(=O)[C@H](CC(C)C)NC(=O)OC(C)(C)C)c(=O)c1=O	> 10 µM		6.36 µM	> 100 µM	> 100 µM	> 16
CC(C)C[C@H](Nc1c(Nc2ccc(C(C)(C)C)cc2)c(=O)c1=O)C(=O)NN(Cc1ccccc1)C(=O)/C=C/S(=O)(=O)c1ccccc1			> 10 µM			
COc1c(N(Cc2ccccc2)NC(=O)[C@H](CC(C)C)NC(=O)OC(C)(C)C)c(=O)c1=O	> 10 µM		> 1 µM			
CCN(CC)CCNc1c(NCCN(CC)CC)c(=O)c1=O	> 10 µM	> 50 µM	> 10 µM			
CN(C)CCCNc1c(NCCCN(C)C)c(=O)c1=O	> 10 µM		> 10 µM			
CCCCOc1c(N(CCc2ccccc2)NC(=O)[C@H](CC(C)C)NC(=O)N2CCOCC2)c(=O)c1=O	> 10 µM		> 10 µM			
CCCCOc1c(N(CCc2ccccc2)NC(=O)[C@H](CC(C)C)NC(=O)OCc2ccccc2)c(=O)c1=O	> 10 µM		4.51 µM	> 100 µM	> 100 µM	> 22
COc1c(NNC(=O)[C@H](CC(C)C)NC(=O)N2CCOCC2)c(=O)c1=O	> 10 µM		> 10 µM			
O=c1c(NC2CCCCC2)c(NC2CCCCC2)c1=O	> 10 µM		> 10 µM			
CCCCNc1c(NCCCC)c(=O)c1=O	> 10 µM		> 10 µM			
CCCCOc1c(N(CCc2ccccc2)NC(=O)[C@H](Cc2ccccc2)NC(=O)OCc2ccccc2)c(=O)c1=O	> 10 µM		4.69 µM	> 100 µM	> 100 µM	> 21
CC(C)C[C@H](NC(=O)[C@H]1O[C@@H]1C(=O)O)C(=O)NCCCCN=C(N)N [E-64]	0.12 µM	0.06 µM				
O=c1c(NC(CO)Cc2ccccc2)c(NC(CO)Cc2ccccc2)c1=O (configuration not stated)	> 10 µM		> 10 µM			
COc1c(NC(CO)Cc2ccccc2)c(=O)c1=O (configuration not stated)	> 10 µM	> 50 µM	> 10 µM			
CN(C)CC(C)(C)CNc1c(NCC(C)(C)CN(C)C)c(=O)c1=O	> 10 µM		> 10 µM			
O=c1c(Nc2cccnc2)c(Nc2cccnc2)c1=O	> 10 µM		> 10 µM			
CC(C)C[C@H](Nc1c(NC(CO)Cc2ccccc2)c(=O)c1=O)C(=O)NN(Cc1ccccc1)C(=O)/C=C/S(=O)(=O)c1ccccc1 (some centres not stated)			> 10 µM			
COc1c(NNC(=O)[C@H](CC(C)C)NC(=O)OC(C)(C)C)c(=O)c1=O	> 10 µM		8.53 µM	> 100 µM	> 100 µM	> 12
CCCCOc1c(NNC(=O)[C@H](CC(C)C)NC(=O)OC(C)(C)C)c(=O)c1=O	> 10 µM		> 10 µM			

SMILES	IC50 (Papain)	IC50 [1]	IC50 (Plasmodium falciparum)	IC50 [2]	IC50 (HEK-293T)	selectivity ratio [3]
COc1cccc(Nc2c(Nc3cccc(OC)c3)c(=O)c2=O)c1	> 5 µM	> 50 µM	> 10 µM			
CCCCOc1c(N(CCc2ccccc2)NC(=O)[C@H](CC(C)C)NC(=O)OC(C)(C)C)c(=O)c1=O	> 10 µM		> 10 µM			
COc1c(Nc2ccc(Cl)cc2)c(=O)c1=O	> 10 µM		> 10 µM			
COc1c(N(CCc2ccccc2)NC(=O)[C@H](CC(C)C)NC(=O)OCc2ccccc2)c(=O)c1=O	> 10 µM		2.99 µM	> 100 µM	> 100 µM	> 33
COc1c(N(CCc2ccccc2)NC(=O)[C@H](CC(C)C)NC(=O)N2CCOCC2)c(=O)c1=O	> 10 µM		> 10 µM			
COc1c(N(CCc2ccccc2)NC(=O)[C@H](Cc2ccccc2)NC(=O)OCc2ccccc2)c(=O)c1=O	> 10 µM		3.14 µM	> 100 µM	> 100 µM	> 32
CC(Nc1c(NC(C)c2ccccc2)c(=O)c1=O)c1ccccc1 (configuration not stated)	> 10 µM		> 10 µM			
CCN(CC)CCCNc1c(NCCCN(CC)CC)c(=O)c1=O	> 10 µM	> 50 µM	> 10 µM			
COc1c(Nc2cccnc2)c(=O)c1=O	> 10 µM		> 10 µM			
CCCCOc1c(Nc2ccc(N3CCCCC3)cc2)c(=O)c1=O	> 10 µM		3.13 µM	> 100 µM	> 100 µM	> 32
COc1c(Nc2ccc(N3CCCCC3)cc2)c(=O)c1=O	> 10 µM		> 10 µM			
COc1c(Nc2ccc(C(C)(C)C)cc2)c(=O)c1=O	> 10 µM		> 10 µM			
CCN(CC)CCCC(C)Nc1c(NC(C)CCCN(CC)CC)c(=O)c1=O (configuration not stated)	> 10 µM		> 10 µM			
COc1ccc(Nc2c(OC)c(=O)c2=O)cc1	> 10 µM		> 10 µM			
CC(C)(C)c1ccc(Nc2c(Nc3ccc(C(C)(C)C)cc3)c(=O)c2=O)cc1	8.1 µM	24.3 µM	0.99 µM	> 100 µM	> 100 µM	> 101
CCCCOc1c(NNC(=O)[C@H](CC(C)C)NC(=O)N2CCOCC2)c(=O)c1=O	> 10 µM		9.45 µM	> 100 µM	> 100 µM	> 11
COc1c(N(CCc2ccccc2)NC(=O)CNC(=O)OCc2ccccc2)c(=O)c1=O	> 10 µM		9.36 µM	> 100 µM	> 100 µM	> 11
CCCCOc1c(N(CCc2ccccc2)NC(=O)CNC(=O)OCc2ccccc2)c(=O)c1=O	> 10 µM		5.17 µM	> 100 µM	> 100 µM	> 19
CC(C)NCCCNc1c(NCCCNC(C)C)c(=O)c1=O	> 10 µM	> 50 µM	> 10 µM			
CN(C)CCNc1c(NCCN(C)C)c(=O)c1=O	> 10 µM		> 10 µM			
